The results in this text go back to patent US10793557B2, “Sting agonist compounds” (Merck Sharp & Dohme Corp., priority 2018, dated 2020).

For experiment [1], the system named is secretion of interferon-beta from THP1 cells. Briefly: IFN-β secretion in THP1 cell culture (5 h). Type of experiment: cell-based. The settings on record: Homo sapiens, THP-1, 5 h, compound at 30 μM, 30 uM cGAMP = 100%, read-out: % Effect at 30 μM relative to 2′3′-cGAMP. Summed up:
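IFN-β in supernatant measured by AlphaLISA after a 5 h, 37 °C incubation of THP1 cells with compound (10 concentrations, 30000 down to 1.5 nM, 0.3% DMSO) in low-serum RPMI. Values scaled between DMSO and 30 uM cGAMP controls; 4-parameter curve fit yields EC50.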

A further experiment concerns the target T1, full-length HAQ STING (Homo sapiens, UniProt Q86WV6, G230A/H232R/R293Q/R71H).
T1 construct: AviTag (after GG linker) (C); HRV3C cleavage site (after GS linker) (C); HIS8 (C); made in house; host or cells: Trichoplusia ni (Hi-Five) insect cells infected with baculovirus (virus generated and amplified in Sf21 cells); used as a washed membrane preparation
Briefly: 3H-cGAMP filtration binding assay (HAQ STING). The following applies: for EC50: competition with tritiated cGAMP, HAQ STING membrane. Summed up: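 Hi-Five (T. ni) membranes overexpressing the STING variant (2.2 ug/ml working) preincubated with compound 60 min at RT in PBS, then [3H]cGAMP (8 nM working stock) added for 60 min at RT. Bound radioactivity captured on GF/B filters and counted by scintillation; EC50 from 4-parameter fit of control-normalized activity.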

The next experiment addresses T2, full-length WT STING (Homo sapiens, UniProt Q86WV6, H232R).
T2 construct: AviTag (after gg linker) (C); HRV3C cleavage site (after gs linker) (C); HIS8 (C); made in house; host or cells: Trichoplusia ni (Hi-Five) insect cells infected with baculovirus (virus generated and amplified in Sf21 cells); used as a washed membrane preparation
Briefly: 3H-cGAMP filtration binding assay (WT STING). The following applies: for EC50: competition with tritiated cGAMP, WT STING membrane; for inhibition at 20 µM: at 20,000 nM compound. Put shortly:
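EC50 values come from 4-parameter fits of remaining filter-bound tritium versus log concentration (10-point, 1:3 dilution). Insect-cell membranes carrying full-length WT STING were incubated 60 min at RT with compound and tritiated cGAMP (16 nM working stock) before filtration.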

T1 sequence (Q86WV6 with tags, fused parts or gaps R71H/G230A/H232R/R293Q): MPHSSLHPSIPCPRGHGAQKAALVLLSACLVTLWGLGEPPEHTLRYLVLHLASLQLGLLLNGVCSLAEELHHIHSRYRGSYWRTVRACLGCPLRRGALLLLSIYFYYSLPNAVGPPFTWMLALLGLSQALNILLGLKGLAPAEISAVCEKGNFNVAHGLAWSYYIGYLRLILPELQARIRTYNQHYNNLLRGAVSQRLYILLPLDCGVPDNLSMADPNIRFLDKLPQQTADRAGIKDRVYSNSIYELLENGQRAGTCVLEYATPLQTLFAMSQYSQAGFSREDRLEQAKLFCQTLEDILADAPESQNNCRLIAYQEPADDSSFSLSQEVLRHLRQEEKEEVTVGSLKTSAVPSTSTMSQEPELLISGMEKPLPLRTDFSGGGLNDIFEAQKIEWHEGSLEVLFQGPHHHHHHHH
T2 sequence (Q86WV6 with tags, fused parts or gaps H232R): as the sequence (Q86WV6 with tags, fused parts or gaps R71H/G230A/H232R/R293Q) above, with H71R, A230G, Q293R counted along it

In general, EC50 refers to the concentration needed to bring the measured effect to its halfway point. Read a high EC50 as weaker potency. On to `COc1cc2sc(C(=O)C[C@H](C)C(=O)O)cc2cc1CCCOc1c(OC)cc2sc(C(=O)C[C@H](C)C(=O)O)cc2c1F` [Example 37, (S)-4-(5-(3-((2-((S)-3-carboxybutanoyl)-4-fluoro-6-methoxybenzo[b]thiophen-5-yl)oxy)propyl)-6-methoxybenzo[b]thiophen-2-yl)-2-methyl-4-oxobutanoic acid], for which the activation at 30 µM in experiment [1] was 76%. The EC50 on full-length HAQ STING was found to be 1 nM; at full-length WT STING, 2 nM.

On to `COc1cc2sc(C(=O)CCC(=O)O)cc2cc1OCCOc1cc2cc(C(=O)CCC(=O)O)sc2cc1OC` [Example 38, 4,4′-((ethane-1,2-diylbis (oxy))bis(6-methoxybenzo [b]thiophene-5,2-diyl))bis(4-oxobutanoic acid)], for which the activation at 30 µM in experiment [1] came out at 17%. The results for the EC50 on full-length HAQ STING and at full-length WT STING were 695 nM and 1040 nM, respectively.

On to `COc1cc2sc(C(=O)CCC(=O)O)cc2cc1OCCCOc1c(OC)cc2sc(C(=O)C[C@H](C)C(=O)O)cc2c1F` [Example 39, (S)-4-(5-(3-((2-(3-carboxypropanoyl)-6-methoxybenzo [b]thiophen-5-yl)oxy)propoxy)-4-fluoro-6-methoxybenzo[b]thiophen-2-yl)-2-methyl-4-oxobutanoic acid], for which the activation at 30 µM in experiment [1] was 75%. The EC50 at full-length HAQ STING came out at 1 nM; at full-length WT STING, 2 nM.

For `COc1cc2cc(C(=O)C[C@H](C)C(=O)O)sc2cc1OCCCc1nc2c(o1)c(OC)cc1sc(C(=O)C[C@H](C)C(=O)O)cc12` [Example 40, (S)-4-(6-(3-(7-((S)-3-carboxybutanoyl)-4-methoxythieno[2′,3′:5,6]benzo[1,2-d]oxazol-2-yl)propoxy)-5-methoxybenzo [b]thiophen-2-yl)-2-methyl-4-oxobutanoic acid], the activation at 30 µM in experiment [1] was 27%. The EC50 worked out at 86 nM at full-length HAQ STING and 1360 nM at full-length WT STING.

Consider `COc1cc2sc(C(=O)C[C@H](C)C(=O)O)cc2cc1CCCOc1cc2cc(C(=O)C[C@H](C)C(=O)O)sc2cc1OC` [Example 41, (2S)-4-{5-[3-({2-[(3S)-3-carboxybutanoyl]-6-methoxy-1-benzothiophen-5-yl}oxy)propyl]-6-methoxy-1-benzothiophen-2-yl}-2-methyl-4-oxobutanoic acid], for which, in experiment [1], the activation at 30 µM worked out at 117%. Besides, the EC50 at full-length HAQ STING was 16 nM; at full-length WT STING, 50 nM.

In the case of `COc1cc2sc(C(=O)C[C@H](C)C(=O)O)cc2cc1CCOc1cc2cc(C(=O)C[C@H](C)C(=O)O)sc2cc1OC` [Example 42, (S)-4-(5-(2-(2-((S)-3-carboxybutanoyl)-6-methoxybenzo[b]thiophen-5-yl)ethoxy)-6-methoxybenzo[b]thiophen-2-yl)-2-methyl-4-oxobutanoic acid], in experiment [1], the activation at 30 µM came to 67%. Besides, the EC50 on full-length HAQ STING was found to be 6 nM; on full-length WT STING, 12 nM.

For `COc1cc2sc(C(=O)C[C@H](C)C(=O)O)cc2cc1OCCCOc1ccc2cc(C(=O)CCC(=O)O)sc2c1` [Example 43, (S)-4-(5-(3-((2-(3-carboxypropanoyl)benzo[b]thiophen-6-yl)oxy)propoxy)-6-methoxybenzo [b]thiophen-2-yl)-2-methyl-4-oxobutanoic acid], the activation at 30 µM in experiment [1] was 69%. Besides, the figures for the EC50 on full-length HAQ STING and at full-length WT STING were 49 nM and 151 nM, respectively.

Turning to `COc1cc2sc(C(=O)CCC(=O)O)cc2cc1CCCOc1cc2cc(C(=O)CCC(=O)O)sc2cc1OC` [Example 44, 4-(5-(3-((2-(3-carboxypropanoyl)-6-methoxybenzo[b]thiophen-5-yl)oxy)propyl)-6-methoxybenzo[b]thiophen-2-yl)-4-oxobutanoic acid], the activation at 30 µM in experiment [1] worked out at 108%. In addition, the EC50 at full-length HAQ STING was determined as 14 nM; at full-length WT STING, 64 nM.

In the case of `COc1cc2cc(C(=O)C[C@H](C)C(=O)O)sc2cc1OCCCOc1ccc2cc(C(=O)CCC(=O)O)sc2c1` [Example 45, (S)-4-(6-(3-((2-(3-carboxypropanoyl)benzo[b]thiophen-6-yl)oxy)propoxy)-5-methoxybenzo[b]thiophen-2-yl)-2-methyl-4-oxobutanoic acid], the activation at 30 µM in experiment [1] came to 8%. The figures for the EC50 at full-length HAQ STING and at full-length WT STING were 4330 nM and 14800 nM, respectively.

As for `COc1cc2cc(C(=O)C[C@H](C)C(=O)O)sc2cc1OCCCOc1ccc2sc(C(=O)CCC(=O)O)cc2c1` [Example 46, (S)-4-(6-(3-((2-(3-carboxypropanoyl)benzo[b]thiophen-5-yl)oxy)propoxy)-5-methoxybenzo[b]thiophen-2-yl)-2-methyl-4-oxobutanoic acid], the activation at 30 µM in experiment [1] was 60%. In addition, the EC50 came to 133 nM at full-length HAQ STING and 394 nM at full-length WT STING.

With `COc1cc2cc(C(=O)C[C@H](C)C(=O)O)sc2cc1OCCCOc1cc2sc(C(=O)C[C@H](C)C(=O)O)cc2cc1OC` [Example 47, (2S,2′S)-4,4′-((propane-1,3-diylbis(oxy))bis(5-methoxybenzo[b]thiophene-6,2-diyl))bis(2-methyl-4-oxobutanoic acid)], the activation at 30 µM in experiment [1] worked out at 62%. The EC50 on full-length HAQ STING is 14 nM; on full-length WT STING, 81 nM.

A word on the inhibition: it is the relative decrease from the control value, in per cent. Consider `COC(=O)[C@@H](C)CC(=O)c1cc2cc(OCCCOc3cc4sc(C(=O)C[C@H](C)C(=O)OC)cc4cc3OC)c(OC)cc2s1` [Example 48, methyl (S)-4-(6-methoxy-5-(3-((5-methoxy-2-((S)-4-methoxy-3-methyl-4-oxobutanoyl)benzo[b]thiophen-6-yl)oxy)propoxy)benzo[b]thiophen-2-yl)-2-methyl-4-oxobutanoate], for which the activation at 30 µM in experiment [1] was determined as 22%. This compound showed an EC50 on full-length HAQ STING of 12800 nM. The same compound came in with an inhibition at 20 µM on full-length WT STING of 43%.

For the compound `COC(=O)[C@@H](C)CC(=O)c1cc2cc(OCCCOc3cc4cc(C(=O)C[C@H](C)C(=O)OC)sc4cc3OC)c(OC)cc2s1` [Example 49, dimethyl 4,4′-((propane-1,3-diylbis(oxy))bis(6-methoxybenzo[b]thiophene-5,2-diyl))(2S,2′S)-bis(2-methyl-4-oxobutanoate)], the activation at 30 µM in experiment [1] amounted to 17%. In addition, the inhibition at 20 µM was determined as 44% on full-length HAQ STING (at 20,000 nM compound) and 34% at full-length WT STING.

As for `COc1cc2sc(C(=O)C[C@H](C)C(=O)O)cc2c(F)c1OCCOc1c(OC)cc2sc(C(=O)C[C@H](C)C(=O)O)cc2c1F` [Example 50, (2S,2′S)-4,4′-((ethane-1,2-diylbis(oxy))bis(4-fluoro-6-methoxybenzo[b]thiophene-5,2-diyl))bis(2-methyl-4-oxobutanoic acid)], the activation at 30 µM in experiment [1] worked out at 44%. Further, the EC50 on full-length HAQ STING and at full-length WT STING was 1 nM throughout.

`COc1cc2sc(C(=O)C[C@H](C)C(=O)O)cc2cc1OCCCOc1cc2sc(C(=O)C[C@H](C)C(=O)O)cc2cc1OC` [Example 51]: the activation at 30 µM in experiment [1] worked out at 43%. Besides, the EC50 at full-length HAQ STING was determined as 3 nM; at full-length WT STING it was 8 nM.

For `COc1cc2sc(C(=O)C[C@H](C)C(=O)O)cc2cc1OCCCOc1cc2cc(C(=O)C[C@H](C)C(=O)O)sc2cc1OC` [Example 52, (2S,2′S)-4,4′-((propane-1,3-diylbis(oxy))bis(6-methoxybenzo[b]thiophene-5,2-diyl))bis(2-methyl-4-oxobutanoic acid)], the activation at 30 µM in experiment [1] was determined as 53%. The EC50 on full-length HAQ STING was found to be 2 nM; on full-length WT STING, 4 nM.

For the compound `COc1cc2cc(C(=O)C[C@H](C)C(=O)O)sc2cc1OCCOc1ccc2sc(C(=O)CCC(=O)O)cc2c1` [Example 53, (S)-4-(6-(2-((2-(3-carboxypropanoyl)benzo[b]thiophen-5-yl)oxy)ethoxy)-5-methoxybenzo[b]thiophen-2-yl)-2-methyl-4-oxobutanoic acid], the activation at 30 µM in experiment [1] turned out to be 23%. For the same compound, the concentration for a half-maximal effect (EC50) at full-length HAQ STING was 146 nM; on full-length WT STING, 713 nM.

For the compound `COc1cc2sc(C(=O)C[C@H](C)C(=O)O)cc2cc1OCCOc1ccc2sc(C(=O)CCC(=O)O)cc2c1` [Example 54, (S)-4-(5-(2-((2-(3-carboxypropanoyl)benzo[b]thiophen-5-yl)oxy)ethoxy)-6-methoxybenzo[b]thiophen-2-yl)-2-methyl-4-oxobutanoic acid], the activation at 30 µM in experiment [1] was found to be 9%. For the same compound, the EC50 on full-length HAQ STING came to 804 nM; at full-length WT STING, 3080 nM.

In the case of `COc1cc2sc(C(=O)C[C@H](C)C(=O)O)cc2cc1OCCCOc1ccc2sc(C(=O)CCC(=O)O)cc2c1` [Example 55, (S)-4-(5-(3-((2-(3-carboxypropanoyl)benzo[b]thiophen-5-yl)oxy)propoxy)-6-methoxybenzo[b]thiophen-2-yl)-2-methyl-4-oxobutanoic acid], the activation at 30 µM in experiment [1] worked out at 53%. Moreover, the EC50 on full-length HAQ STING was determined as 14 nM; on full-length WT STING it was 48 nM.
